One test concerns H. influenzae. Kind of test: microbe, parasite or virus in culture. It is filed as cell-based, Haemophilus influenzae. The conditions noted are these: for effect of inactivation of HI1462 on susceptibility: H. influenzae NB65044; for MIC: Haemophilus influenzae; for effect of insertional inactivation of acrB on susceptibility: laboratory strain NB65044. The method, then: L-broth or L-agar (Difco) is used for routine growth of Escherichia coli (E. coli). Chocolate agar plates (Remel) are used for routine growth of H. influenzae. Brain heart infusion broth (Remel) supplemented with 10 μg/mL of β-NAD (Fluka) and 10 μg/mL hemin/vitamin K solution (sBHI) (Remel) is used for liquid broth cultivation of H. influenzae. For induction of natural competence in H. influenzae, nutritional downshift is induced using M-IV medium as described previously. See Poje and Redfield, Methods Mol Med, Vol. 71, No., pp. 57-70 (2003). Kanamycin is added to growth media at 50 μg/mL (E. coli) or 5 μg/mL (H. influenzae) as required.
Antibiotic and substrate MICs are determined by broth microdilution using 2-fold dilution in HTM in accordance with the procedures established by the National Committee for Clinical Laboratory Standards (NCCLS). See NCCLS, Approved standard M7-A5, Wayne, Pa. (2003). PDF inhibitors are synthesized at the Novartis Institutes for BioMedical Research, Cambridge, Mass. All remaining antibiotics are obtained from Sigma (St. Louis, Mo.).

The next test deals with E. coli. Kind of test: MIC of LBM415 in E. coli with or without AcrAB-TolC pump function. The test is classed as cell-based. The conditions noted are these: Escherichia coli. The method, then:
(§1) For E. coli testing, strain NB27006 is used. This strain is deficient in its native AcrAB pump (described in H Okusu et al. J. Bacteriol. 1996 178: 306-308) and is a suitable host for cloning the H. influenzae acrAB pump genes.
(§2) E. coli: MIC determines are conducted as described above except using Mueller-Hinton test medium.
12). The acrAB containing product is cloned into Topo PCR2.1 (Invitrogen) and transformed into Top10 competent cells (Invitrogen). An insert bearing plasmid is isolated and sequenced to ensure that mutations are not introduced during PCR and cloning. This plasmid is then transformed into E. coli strain NB27006, which lacks its native AcrAB-ToIC pump function.
To further examine this, the H. influenzae acrAB genes are cloned and used to complement, in trans, an AcrAB pump deficiency in E. coli strain NB27006.

The test system of test [1] is H. influenzae NB65044-CDS0011. As to the kind of experiment: Potentiation of antibiotic MIC by efflux inhibitor (two-axis 96-well plates). It is filed as cell-based, Haemophilus influenzae. The conditions noted are these: H. influenzae overexpressing AcrAB; data not shown. The method, then:
H. influenzae NB65044-CDS0011 is used for H. influenzae testing. This strain has increased pump expression which is thought to result in more sensitive detection of pump inhibition.
H. influenzae: MIC determinations are conducted in 96 well sterile plates with a range of LBM415 along one axis and range of efflux inhibitor along the other axis. Medium used is HTM (Remel). Inoculum is set to approximately […] bacteria per well using the BBL prompt system.

In test [2] the test system is E. coli strain NB27006 complemented with H. influenzae acrAB genes. Kind of test: Potentiation of antibiotic MIC by efflux inhibitor in E. coli carrying the H. influenzae acrAB genes. It is filed as cell-based, Escherichia coli. The conditions noted are these: E. coli complemented in trans with H. influenzae acrAB genes. The method, then: as §1, §2
Genes encoding H. influenzae AcrAB pump components are PCR amplified from NB65044 genomic DNA using the primers acrA prom F1 (5′-AATTA[…]-3′) (SEQ ID NO. 11) and acrBR3 […] 5′-[…]-3″) (SEQ ID NO. 12). The acrAB containing product is cloned into Topo PCR2.1 (Invitrogen) and transformed into Top10 competent cells (Invitrogen). An insert bearing plasmid is isolated and sequenced to ensure that mutations are not introduced during PCR and cloning. This plasmid is then transformed into E. coli strain NB27006, which lacks its native AcrAB-ToIC pump function.
Since efflux pumps are impacted by such factors as outer membrane permeability, and E. coli is thought to have a less permeable outer membrane than H. influenzae (possibly accounting for increased impact of efflux on drug resistance), it has reasoned that the detection of H. influenzae AcrAB pump inhibition might be more sensitive in an E. coli background. […] This is interesting in that the native E. coli AcrAB-ToIC pump does extrude tetracycline.

Setting [3] is: strain NB65016 (clinical isolate), read-out: MIC.
Setting [4] is: strain NB65016-CDS0004, knockout acrB.
[5] abbreviates: strain NB65027 (clinical isolate), read-out: MIC.
The mark [6] stands for this setting: strain NB65027-CDS0003, knockout HI1462.
The mark [7] stands for this setting: strain NB65027-CDS0021, knockout acrB.
Where [8] appears, read: strain NB65044 (Rd KW20, parent laboratory strain), read-out: MIC.
[9] abbreviates: strain NB65044-CDS0001 (NB65044 acrB::Km).
The mark [10] stands for this setting: strain NB65044-CDS0020 (Table 1: NB65044 acrB::Km).
Where [11] appears, read: strain NB65051 (clinical isolate), read-out: MIC.
Where [12] appears, read: strain NB65051-CDS0002, knockout acrB.
Setting [13] is: strain NB65051-CDS0022, knockout HI1462.
The mark [14] stands for this setting: strain NB65063 (clinical isolate), read-out: MIC.
Setting [15] is: strain NB65063-CDS0005, knockout acrB.
Setting [16] is: strain NB65069 (clinical isolate), read-out: MIC.
Where [17] appears, read: strain NB65069-CDS0007, knockout acrB.
[18] abbreviates: strain NB65076 (clinical isolate), read-out: MIC.
Setting [19] is: strain NB65076-CDS0006, knockout acrB.

≈ marks a conversion by molar mass, not a printed value. Read-outs that look alike come from different tables or passages of the source. Where a SMILES comes first, the peptide text is derived from it. The star is where a group is joined. βNA = c1ccc2cc(N*)ccc2c1

As for `CC[C@H]1OC(=O)[C@H](C)[C@@H](O[C@H]2C[C@@](C)(OC)[C@@H](O)[C@H](C)O2)[C@H](C)[C@@H](O[C@@H]2O[C@H](C)C[C@H](N(C)C)[C@H]2O)[C@](C)(O)C[C@@H](C)C(=O)[C@H](C)[C@@H](O)[C@]1(C)O` [ERM, erythromycin], the “effect of inactivation of HI1462 on susceptibility” value with H. influenzae is on record as “increases susceptibility”. Also, the MIC worked out at 16 µg/mL (≈ 21.8 µM) in the test with H. influenzae (setting [3]); 0.25 µg/mL (≈ 0.341 µM) against H. influenzae (setting [4]); 16 µg/mL (≈ 21.8 µM) with H. influenzae (setting [5]); 0.125 µg/mL (≈ 0.17 µM) against H. influenzae (setting [6]); 0.25 µg/mL (≈ 0.341 µM) with H. influenzae (setting [7]); 4 µg/mL (≈ 5.45 µM) with H. influenzae (setting [8]). The MIC against H. influenzae (setting [9]) stood at 0.25 µg/mL (≈ 0.341 µM); in the test with H. influenzae (setting [10]), 0.25 µg/mL (≈ 0.341 µM); in the test with H. influenzae (setting [11]), 16 µg/mL (≈ 21.8 µM); in the test with H. influenzae (setting [12]) it was 0.25 µg/mL (≈ 0.341 µM); against H. influenzae (setting [13]), 0.125 µg/mL (≈ 0.17 µM); in the test with H. influenzae (setting [14]), 8 µg/mL (≈ 10.9 µM). Further, the MIC worked out at 0.25 µg/mL (≈ 0.341 µM) against H. influenzae (setting [15]); 16 µg/mL (≈ 21.8 µM) in the test on H. influenzae (setting [16]); 0.125 µg/mL (≈ 0.17 µM) with H. influenzae (setting [17]); 16 µg/mL (≈ 21.8 µM) in the test on H. influenzae (setting [18]); 0.125 µg/mL (≈ 0.17 µM) against H. influenzae (setting [19]). The “effect of insertional inactivation of acrB on susceptibility” value (from here on “effect … of acrB on susceptibility”) in the test with H. influenzae is given as “increases susceptibility”.
For the compound `CCCC[C@H](CN(O)C=O)C(=O)N1CCC[C@H]1C(=O)Nc1ccc(F)c[n+]1[O-]` [LBM415], the MIC in the test with E. coli (E. coli strain NB27006 complemented with the H. influenzae acrAB genes) was 32 µg/mL; in the test on E. coli (E. coli strains deficient in AcrAB-ToIC pump function, typical value) it was approximately 1 µg/mL; with E. coli (E. coli with native AcrAB-ToIC pump, typical value), not below 128 µg/mL; with H. influenzae (setting [3]) it was 16 µg/mL (≈ 40.4 µM); against H. influenzae (setting [4]), 0.25 µg/mL (≈ 0.631 µM); in the test with H. influenzae (setting [5]), 32 µg/mL (≈ 80.7 µM). Further, the MIC is 0.5 µg/mL (≈ 1.26 µM) against H. influenzae (setting [6]); 0.5 µg/mL (≈ 1.26 µM) with H. influenzae (setting [7]); 4 µg/mL (≈ 10.1 µM) with H. influenzae (setting [8]); 0.25 µg/mL (≈ 0.631 µM) in the test with H. influenzae (setting [9]); 0.125 µg/mL (≈ 0.315 µM) against H. influenzae (setting [10]); 32 µg/mL (≈ 80.7 µM) with H. influenzae (setting [11]). Also, the MIC is 0.25 µg/mL (≈ 0.631 µM) in the test on H. influenzae (setting [12]); 0.25 µg/mL (≈ 0.631 µM) against H. influenzae (setting [13]); not above 0.25 µg/mL in the test with H. influenzae (strain NB65062 (clinical isolate, hyper-susceptible, acrA deletion), read-out: MIC); 8 µg/mL (≈ 20.2 µM) in the test with H. influenzae (strain NB65062-CDS0037 (NB65062 complemented for acrA deficiency), read-out: MIC); 8 µg/mL (≈ 20.2 µM) in the test on H. influenzae (strain NB65062-CDS0038 (NB65062 complemented for acrA deficiency), read-out: MIC); 32 µg/mL (≈ 80.7 µM) in the test with H. influenzae (setting [14]). The MIC in the test on H. influenzae (setting [15]) turned out to be 1 µg/mL (≈ 2.52 µM); in the test on H. influenzae (setting [16]), 16 µg/mL (≈ 40.4 µM); in the test with H. influenzae (setting [17]) it was 0.25 µg/mL (≈ 0.631 µM); with H. influenzae (setting [18]), 16 µg/mL (≈ 40.4 µM); in the test with H. influenzae (setting [19]), 0.25 µg/mL (≈ 0.631 µM). Besides, in the test on H. influenzae, the “effect of inactivation of HI1462 on susceptibility” value is “increases susceptibility”. The decrease in susceptibility in the test on H. influenzae (acrR insertionally inactivated in NB65044 (NB65044-CDS0008) versus parent) is given as 2 fold; with H. influenzae (two acrR mutants of NB65044 selected on 8 μg/mL LBM415 versus parent), 8 fold. The “effect … of acrB on susceptibility” value in the test on H. influenzae was “significantly increases susceptibility”.
On to `N=C(N)NCCC[C@H](NC(=O)[C@@H](N)Cc1ccccc1)C(=O)Nc1ccc2ccccc2c1` [MC-207,110] (H-Phe-Arg-βNA), for which, in test [1], the “potentiation of LBM415 activity” value was “potentiation”, the potentiation of clindamycin result is “potentiate” and the “potentiation of tetracycline (pump non-substrate)” value is “no potentiation”. Also, in test [2], the “potentiation of LBM415” value is reported as “potentiating activity”, the potentiation of clindamycin entry is on record as “potentiating activity” and the potentiation of tetracycline entry is on record as “no potentiation”.
Consider `COC(=O)[C@H]1[C@H]2C[C@@H]3c4[nH]c5cc(OC)ccc5c4CCN3C[C@H]2C[C@@H](OC(=O)c2cc(OC)c(OC)c(OC)c2)[C@@H]1OC` [Reserpine], for which, in test [1], the “potentiation of LBM415 activity” value is “did not potentiate” and the potentiation of clindamycin entry is “did not potentiate”.
As for `CN(C)[C@@H]1C(O)=C(C(N)=O)C(=O)[C@@]2(O)C(O)=C3C(=O)c4c(O)cccc4[C@@](C)(O)[C@H]3C[C@@H]12` [TET, tetracycline], the MIC against H. influenzae (setting [4]) is 1 µg/mL (≈ 2.25 µM); with H. influenzae (setting [6]) it was 1 µg/mL (≈ 2.25 µM); against H. influenzae (setting [7]), 0.5 µg/mL (≈ 1.13 µM); against H. influenzae (setting [9]), 0.5 µg/mL (≈ 1.13 µM); against H. influenzae (strain NB65044-CDS0008, knockout acrR), 0.5 µg/mL (≈ 1.13 µM); against H. influenzae (strain NB65044-CDS0011 (acrR mutant selected on 8 μg/mL LBM415, stop codon)), 1 µg/mL (≈ 2.25 µM). The MIC with H. influenzae (strain NB65044-CDS0014 (acrR mutant selected on 8 μg/mL LBM415, L→P)) was 1 µg/mL (≈ 2.25 µM); with H. influenzae (setting [10]) it was 1 µg/mL (≈ 2.25 µM); with H. influenzae (setting [12]), 1 µg/mL (≈ 2.25 µM); with H. influenzae (setting [13]), 1 µg/mL (≈ 2.25 µM); with H. influenzae (setting [15]) it was 1 µg/mL (≈ 2.25 µM); against H. influenzae (setting [17]), 1 µg/mL (≈ 2.25 µM). The same compound had an MIC against H. influenzae (setting [19]) of 1 µg/mL (≈ 2.25 µM).
Regarding `O=C(N[C@H](CO)[C@H](O)c1ccc([N+](=O)[O-])cc1)C(Cl)Cl` [chloramphenicol], in the test on H. influenzae, the “effect … of acrB on susceptibility” value is listed as “unaffected”.

Source of the values: US20090156645A1, “Method for Increasing the Susceptibility of Peptide Deformylase Inhibitors by Using Efflux Pump Inhibitors” (priority 2004, published 2009).
